Converted amounts (≈) assume the structure as drawn.
Assays:
Assay type in all cases: cell-based
[1] = tested on: E. coli, S. salivarius, L. casei, B. longum or M. luteus; test: Direct antibacterial activity, summary over all strains tested; conditions: summary in words of Table 1
Description: (§1) The bioactivity of macrolide compounds against 4 strains of common gut bacteria (Escherichia coli, Streptococcus salivarius subsp. salivarius, Lactobacillus casei and Bifidobacterium longum subsp. infantis) and common mammalian skin isolate Micrococcus luteus, was assessed using the Minimum Inhibitory Concentration (MIC) assay. Bacterial strains were purchased from DSMZ (Brunswick, Germany) except M. luteus which was obtained from NCIMB, and stored in 20% glycerol at −80° C. Stock solutions (100% DMSO) of positive controls (azithromycin and erythromycin), and of test compounds 1 and 2 were diluted in broth to working stock concentrations of 256 μg/ml (final assay testing concentration range 128 μg/ml to 0.00391 μg/ml). Stock solutions of all other compounds were diluted in broth to working stock concentrations of 128 μg/ml (final assay testing concentration range 64 μg/ml to 0.00195 μg/ml). Bacterial strains were cultivated in appropriate broth in an anaerobic chamber at 37° C., except for M. luteus which was incubated aerobically at 37° C. 18 h cultures were diluted in broth to an OD595 of 0.1 and then further diluted 1:10. In 96-well plates, in duplicate, 200 μl working stock of test compound was transferred to well 1 and serially diluted (1:2) in broth. 100 μl bacterial suspension was aliquoted into each well and mixed thoroughly. Appropriate sterility controls were included and plates were incubated in an anaerobic chamber, or aerobically (M. luteus) at 37° C. for 18 h. The MIC was determined to be the concentration of test compound in the first well with no visible growth.

human TLR2 = target: T1, human TLR2 (Homo sapiens, UniProt O60603); test: TLR2 reporter assay (HEK-293-TLR, SEAP); conditions: for TLR2 stimulation: at concentrations up to 20 uM
T1 construct: host or cells: recombinant HEK-293-TLR cell lines
Description: Samples and controls were tested in duplicate on recombinant HEK-293-TLR cell lines using a cell reporter assay at Invivogen using their standard assay conditions. These cell lines functionally over-express human TLR2 protein as well as a reporter gene which is a secreted alkaline phosphatase (SEAP). The production of this reporter gene is driven by an NFkB inducible promoter. The TLR reporter cell lines activation results are given as optical density values (OD).
20 μl of each test article were used to stimulate the hTLR2 reporter cell lines in a 200 μl of final reaction volume. Samples were tested in duplicate, with at least two concentrations tested—20 uM and 10 uM.
Compounds were tested using a TLR2 reporter assay (see general methods) that measured for stimulation of the TLR2 receptor. Stimulatory effect was measured as an increase in optical density (OD) due to release of secreted alkaline phosphatase (SEAP) and is shown in table 4: […]

Escherichia coli = test: Minimum Inhibitory Concentration (MIC) assay; conditions: anaerobic, 37° C., 18 h
Description: as §1

Lactobacillus casei = test: Minimum Inhibitory Concentration (MIC) assay; conditions: Lacticaseibacillus casei; anaerobic, 37° C., 18 h
Description: as §1

[2] = tested on: Streptococcus salivarius subsp. salivarius; test: Minimum Inhibitory Concentration (MIC) assay; conditions: anaerobic, 37° C., 18 h
Description: as §1

Micrococcus luteus = test: Minimum Inhibitory Concentration (MIC) assay; conditions: aerobic, 37° C., 18 h
Description: as §1

[3] = tested on: Bifidobacterium longum subsp. infantis; test: Minimum Inhibitory Concentration (MIC) assay; conditions: anaerobic, 37° C., 18 h
Description: as §1

T1 sequence (O60603 21-784): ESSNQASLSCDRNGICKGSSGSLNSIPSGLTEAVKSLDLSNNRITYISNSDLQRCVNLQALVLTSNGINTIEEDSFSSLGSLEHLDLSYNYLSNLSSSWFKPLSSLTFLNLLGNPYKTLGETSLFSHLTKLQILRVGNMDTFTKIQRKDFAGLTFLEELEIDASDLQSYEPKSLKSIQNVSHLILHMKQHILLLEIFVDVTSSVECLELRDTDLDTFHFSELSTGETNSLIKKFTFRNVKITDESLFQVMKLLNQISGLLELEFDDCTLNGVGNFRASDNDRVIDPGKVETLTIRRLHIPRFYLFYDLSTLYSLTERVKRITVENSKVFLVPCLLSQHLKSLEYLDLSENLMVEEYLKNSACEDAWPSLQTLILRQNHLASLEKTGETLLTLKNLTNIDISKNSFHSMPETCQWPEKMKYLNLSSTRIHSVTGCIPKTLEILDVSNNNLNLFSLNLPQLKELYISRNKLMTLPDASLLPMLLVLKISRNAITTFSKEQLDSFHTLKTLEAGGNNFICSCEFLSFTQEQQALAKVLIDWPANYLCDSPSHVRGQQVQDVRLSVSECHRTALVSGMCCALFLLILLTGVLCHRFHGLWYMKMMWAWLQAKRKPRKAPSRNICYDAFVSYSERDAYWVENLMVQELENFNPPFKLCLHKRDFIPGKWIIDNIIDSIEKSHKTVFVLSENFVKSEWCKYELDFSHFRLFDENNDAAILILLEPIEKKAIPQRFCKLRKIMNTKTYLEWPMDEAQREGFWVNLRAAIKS

SMILES | antibacterial activity against the bacterial strains tested [1] | OD after addition of 5 μM test article (human TLR2) | OD after addition of 10 μM test article (human TLR2) | OD after addition of 20 μM test article (human TLR2) | TLR2 stimulation (human TLR2) | MIC (Escherichia coli) | MIC (Lactobacillus casei) | MIC [2] | MIC (Micrococcus luteus) | MIC [3] | lowest concentration at which TLR2 was stimulated (concentrations down to) (human TLR2)
CC[C@H]1OC(=O)[C@H](C)[C@@H](O[C@H]2C[C@@](C)(OC)[C@@H](O)[C@H](C)O2)[C@H](C)[C@@H](O[C@@H]2O[C@H](C)C[C@H](N(C)C)[C@H]2O)[C@](C)(O)C[C@@H](C)CN(C)[C@H](C)[C@@H](O)[C@]1(C)O [Azithromycin, reference compound] | potent activity against a number of the strains | 0.029 OD | 0.045 OD | 0.031 OD | little or no stimulation | < 8 µg/mL | < 1 µg/mL | < 0.5 µg/mL | 0.125 µg/mL (≈ 0.167 µM) | > 64 µg/mL | 
CC[C@H]1OC(=O)[C@H](C)[C@@H](O[C@H]2CC(N(C)C)[C@H](O)C(C)O2)[C@H](C)[C@@H](O)[C@](C)(O)C[C@@H](C)C(=O)[C@H](C)[C@@H](O)[C@H]1C (stereo partly drawn) [Compound 3] | no antibacterial activity | −0.043 OD | −0.015 OD | −0.026 OD | little or no stimulation |  |  |  |  |  | 
CC[C@H]1OC(=O)[C@H](C)[C@@H](O[C@H]2CC(N(C)C)[C@H](O)C(C)O2)[C@H](C)[C@@H](O)[C@](C)(O)C[C@@H](C)CN(C)[C@H](C)[C@@H](O)[C@H]1C (stereo partly drawn) [Compound 4] | no antibacterial activity |  |  |  |  | > 64 µg/mL | > 64 µg/mL | > 64 µg/mL |  | > 64 µg/mL | 
CC1O[C@@H](O[C@H]2[C@H](C)[C@@H](O)[C@](C)(O)C[C@@H](C)C(=O)[C@H](C)[C@@H](O)[C@@H](C)[C@@H](C3CCC3)OC(=O)[C@@H]2C)CC(N(C)C)[C@@H]1O (stereo partly drawn) [Compound 5] | no antibacterial activity |  |  |  |  | > 64 µg/mL | > 64 µg/mL | > 64 µg/mL |  | > 64 µg/mL | 
CC[C@H]1OC(=O)[C@H](C)[C@@H](O[C@H]2CC(NC)[C@H](O)C(C)O2)[C@H](C)[C@@H](O)[C@](C)(O)C[C@@H](C)C(=O)[C@H](C)[C@@H](O)[C@H]1C (stereo partly drawn) [Compound 6] | no antibacterial activity |  |  |  |  | > 64 µg/mL | > 64 µg/mL | > 64 µg/mL |  | > 64 µg/mL | 
CC1O[C@@H](O[C@H]2[C@H](C)[C@@H](O)[C@](C)(O)C[C@@H](C)C(=O)[C@H](C)[C@@H](O)[C@@H](C)[C@@H](C)OC(=O)[C@@H]2C)CC(N(C)C)[C@@H]1O (stereo partly drawn) [Compound 8] | no antibacterial activity |  |  |  |  | > 64 µg/mL | > 64 µg/mL | > 64 µg/mL |  | > 64 µg/mL | 
CC(O)[C@H]1OC(=O)[C@H](C)[C@@H](O[C@H]2C[C@@H](N(C)C)[C@H](O)[C@@H](C)O2)[C@H](C)[C@@H](O)[C@](C)(O)C[C@@H](C)C(=O)[C@H](C)[C@@H](O)[C@H]1C (stereo partly drawn) [Compound 9, 14-hydroxy angolosamine erythronolide B] | no antibacterial activity |  |  |  |  | > 64 µg/mL | > 64 µg/mL | > 64 µg/mL |  | > 64 µg/mL | 
CC[C@H]1OC(=O)[C@H](C)[C@@H](O[C@H]2CC(N(C)C)[C@H](O)C(C)O2)[C@H](C)[C@@H](O)[C@](C)(O)C[C@@H](C)N(C)C[C@H](C)[C@@H](O)[C@]1(C)O (stereo partly drawn) [Compound 17] |  | 0.054 OD | 0.155 OD | 0.234 OD |  |  |  |  |  |  | 10 µM
CC[C@H]1OC(=O)[C@H](C)[C@@H](O[C@H]2C[C@@](C)(OC)[C@@H](O)[C@H](C)O2)[C@H](C)[C@@H](O[C@@H]2O[C@H](C)C[C@H](N(C)C)[C@H]2O)[C@](C)(O)C[C@@H](C)C(=O)[C@H](C)[C@@H](O)[C@]1(C)O [Erythromycin, reference compound] | potent activity against a number of the strains | 0.035 OD | 0.065 OD | 0.045 OD | little or no stimulation | > 64 µg/mL | < 0.25 µg/mL | < 0.06 µg/mL | < 0.0625 µg/mL | > 64 µg/mL | 
